Laboratory results published in patent publication US10703757B2, “Compounds and methods for CDK8 modulation and indications therefor” (Plexxikon Inc., priority 2016, dated 2020).

Legend:
[1] = tested on: CDK8 (phosphorylation of STAT1 at serine 727 in A549 cells); test: Cell based Phospho-STAT1 assay (IFNγ-stimulated A549 cells, AlphaLISA); conditions: Homo sapiens, A549, A549 cells, phospho-STAT1 after IFNγ stimulation
In short: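 A549 cells given serial compound dilutions for 1 h at 37 °C, then stimulated with IFNγ at 10 ng/mL final for 30 min. Lysate STAT1 Ser727 phosphorylation measured by AlphaLISA; % inhibition vs stimulated/unstimulated DMSO controls, IC50 by nonlinear regression.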

[2] = tested on: CDK8 (TCF/LEF luciferase reporter in HCT116 cells); test: Cell based TCF/LEF reporter assay (HCT116+TCF/LEF luciferase); conditions: Homo sapiens, HCT-116, 24 h
Description: Determine Inhibitor Activity Against CDK8 in Cell Based TCF/LEF Reporter Assay
The colorectal carcinoma cell line HCT116 was stably transduced with lentivirus encoding the TCF/LEF promoter upstream of a luciferase reporter gene (Qiagen) and single cell clones expressing this construct (referred to as HCT116+TCF/LEF) were isolated. HCT116 express endogenous mutant β-catenin^3, resulting in up-regulation of transcription through the TCF/LEF promoter. Expression of the TCF/LEF reporter construct in HCT116 results in constitutive expression of luciferase. Treatment of the cells with inhibitors of components of the β-catenin signaling pathway (such as CDK8) results in decreased expression of luciferase. The assay is performed as follows. The HCT116+TCF/LEF cell line is seeded in a 96 well plate in 50 μL of culture media at 1×10^4 cells/well and incubated at 37° C. overnight. Serial dilutions of compounds (in total volume of 50 μL culture media) are added to the cells and incubated at 37° C. for 24 hours. 4 wells of DMSO treated cells serve as high controls and cells treated with 10 uM of the reference compound CCT251545 (a known CDK8 inhibitor)^4 serve as low controls. The viability of the cells is assayed by the addition of […] reagent (Promega) followed by 30 minute incubation at 37° C. and quantification of the fluorescent signal (Ex400/Em505). The luciferase expression is then assayed by the addition of 25 μL ONE-Glo reagent (Promega) followed by 10 minute incubation at room temperature and quantification of the luminescence signal. The luminescence signal is normalized to the fluorescence signal to correct for any loss in cell viability over the 24 hour compound incubation period. The percentage inhibition at individual concentrations relative to high and low controls is calculated. The data are analyzed by using nonlinear regression to generate IC50 values.

CC(=O)N1CCC(Oc2cccc3ncc(-c4ccc(-c5cnn(C(F)F)c5)cc4)n23)CC1 [Compound P-0304, 1-[4-[3-[4-[1-(difluoromethyl)pyrazol-4-yl]phenyl]imidazo[1,2-a]pyridin-5-yl]oxy-1-piperidyl]ethanone]
IC50 [1]: 1000 to 10000 nM
IC50 [2]: 1000 to 10000 nM

CC(C)(C#Cc1nccn2ncc(-c3ccc(-c4cnn(CCCC#N)c4)cc3)c12)C(N)=O [Compound P-0456, 4-(3-(4-(1-(3-cyanopropyl)-1H-pyrazol-4-yl)phenyl)pyrazolo[1,5-a]pyrazin-4-yl)-2,2-dimethylbut-3-ynamide]
IC50 [1]: 0.1 to 100 nM
IC50 [2]: 0.1 to 100 nM

N#CC1CCC(c2cccn3ncc(-c4ccc(OCC5CCCCO5)cc4)c23)CC1 (centres unmarked) [Compound P-0144, 4-(3-(4-((tetrahydro-2H-pyran-2-yl)methoxy)phenyl)pyrazolo[1,5-a]pyridin-4-yl)cyclohexane-1-carbonitrile]
IC50 [1]: 0.1 to 100 nM
IC50 [2]: 0.1 to 100 nM

Cn1cc(-c2ccc(-c3cnn4ccnc(C#CC(C)(C)O)c34)cc2)cn1 [Compound P-0274, 2-methyl-4-(3-(4-(1-methyl-1H-pyrazol-4-yl)phenyl)pyrazolo[1,5-a]pyrazin-4-yl)but-3-yn-2-ol]
IC50 [1]: 0.1 to 100 nM
IC50 [2]: 0.1 to 100 nM

N#CC1CCN(c2cccn3ncc(-c4ccc(OCCN5CCOCC5)cc4)c23)CC1 [Compound P-0261, 1-(3-(4-(2-morpholino-ethoxy)phenyl)pyrazolo[1,5-a]pyridin-4-yl)piperidine-4-carbonitrile]
IC50 [1]: 0.1 to 100 nM
IC50 [2]: 0.1 to 100 nM

CC(C)(O)Cn1cc(-c2ccc(-c3cnn4ccnc(C#CC(C)(C)C(N)=O)c34)cc2)cn1 [Compound P-0110, 4-(3-(4-(1-(2-hydroxy-2-methylpropyl)-1H-pyrazol-4-yl)phenyl)pyrazolo[1,5-a]pyrazin-4-yl)-2,2-dimethylbut-3-ynamide]
IC50 [1]: 0.1 to 100 nM
IC50 [2]: 0.1 to 100 nM

CC(C)(O)C#Cc1cccn2ncc(-c3ccc(-c4cn[nH]c4)cc3)c12 [Compound P-0229, 4-(3-(4-(1H-pyrazol-4-yl)phenyl)pyrazolo[1,5-a]pyridin-4-yl)-2-methylbut-3-yn-2-ol]
IC50 [1]: 0.1 to 100 nM
IC50 [2]: 0.1 to 100 nM

Cc1n[nH]c2cc(-c3cnn4ccnc(C5=CCC(C#N)CC5)c34)ccc12 (centres unmarked) [Compound P-0071, 4-(3-(3-methyl-1H-indazol-6-yl)pyrazolo[1,5-a]pyrazin-4-yl)cyclohex-3-ene-1-carbonitrile]
IC50 [1]: 0.1 to 100 nM
IC50 [2]: 0.1 to 100 nM

N#CC1CCN(c2c(-c3ccc(OCCCN4CCOCC4)cc3)cnc3[nH]ccc23)CC1 [Compound P-0327, 1-(5-(4-(3-morpholinopropoxy)phenyl)-1H-pyrrolo[2,3-b]pyridin-4-yl)piperidine-4-carbonitrile]
IC50 [1]: 0.1 to 100 nM
IC50 [2]: 0.1 to 100 nM

N#CC1CC=C(c2nccn3ncc(-c4ccc(-c5cnn(C(F)F)c5)cc4)c23)CC1 (centres unmarked) [Compound P-0012, 4-(3-(4-(1-(difluoromethyl)-1H-pyrazol-4-yl)phenyl)pyrazolo[1,5-a]pyrazin-4-yl)cyclohex-3-ene-1-carbonitrile]
IC50 [1]: 0.1 to 100 nM
IC50 [2]: 0.1 to 100 nM

N#CC1CCN(c2c(-c3ccc(-c4cnn(CC(F)(F)F)c4)cc3)cnc3[nH]ccc23)CC1 [Compound P-0174, 1-(5-(4-(1-(2,2,2-trifluoroethyl)-1H-pyrazol-4-yl)phenyl)-1H-pyrrolo[2,3-b]pyridin-4-yl)piperidine-4-carbonitrile]
IC50 [1]: 0.1 to 100 nM
IC50 [2]: 0.1 to 100 nM

O=C1NCCC12CCN(c1cccn3ncc(-c4ccc(OCCOC5CCOCC5)cc4)c13)CC2 [Compound P-0145, 8-(3-(4-(2-((tetrahydro-2H-pyran-4-yl)oxy)ethoxy)phenyl)pyrazolo[1,5-a]pyridin-4-yl)-2,8-diazaspiro[4.5]decan-1-one]
IC50 [1]: 0.1 to 100 nM
IC50 [2]: 0.1 to 100 nM

N#CC1CC=C(c2nccn3ncc(-c4ccc(OCC5CCCCO5)cc4)c23)CC1 (centres unmarked) [Compound P-0079, 4-(3-(4-((tetrahydro-2H-pyran-2-yl)methoxy)phenyl)pyrazolo[1,5-a]pyrazin-4-yl)cyclohex-3-ene-1-carbonitrile]
IC50 [1]: 0.1 to 100 nM
IC50 [2]: 0.1 to 100 nM

CC(C)(C#Cc1cccn2ncc(-c3ccc(-c4cnn(CC(F)F)c4)cc3)c12)C(N)=O [Compound P-0467, 4-(3-(4-(1-(2,2-difluoroethyl)-1H-pyrazol-4-yl)phenyl)pyrazolo[1,5-a]pyridin-4-yl)-2,2-dimethylbut-3-ynamide]
IC50 [1]: 0.1 to 100 nM
IC50 [2]: 0.1 to 100 nM

N#CC1CC=C(c2nccn3ncc(-c4ccc(-c5cnn(CCN6CCCC6)c5)cc4)c23)CC1 (centres unmarked) [Compound P-0049, 4-(3-(4-(1-(2-(pyrrolidin-1-yl)ethyl)-1H-pyrazol-4-yl)phenyl)pyrazolo[1,5-a]pyrazin-4-yl)cyclohex-3-ene-1-carbonitrile]
IC50 [1]: 0.1 to 100 nM
IC50 [2]: 0.1 to 100 nM

CC(C)(C#Cc1cccn2ncc(-c3ccc(-c4cnn(CCN5CCCC5)c4)cc3)c12)C(N)=O [Compound P-0465, 2,2-dimethyl-4-(3-(4-(1-(2-(pyrrolidin-1-yl)ethyl)-1H-pyrazol-4-yl)phenyl)pyrazolo[1,5-a]pyridin-4-yl)but-3-ynamide]
IC50 [1]: 0.1 to 100 nM
IC50 [2]: 0.1 to 100 nM

N#CC1CCN(c2c(-c3ccc(-n4cccn4)cc3)cnc3[nH]ccc23)CC1 [Compound P-0219, 1-(5-(4-(1H-pyrazol-1-yl)phenyl)-1H-pyrrolo[2,3-b]pyridin-4-yl)piperidine-4-carbonitrile]
IC50 [1]: 0.1 to 100 nM
IC50 [2]: 0.1 to 100 nM

N#CC1CCC(c2nccn3ncc(-c4ccc5c(cnn5C5CCCCO5)c4)c23)CC1 (centres unmarked) [Compound P-0109, 4-(3-(1-(tetrahydro-2H-pyran-2-yl)-1H-indazol-5-yl)pyrazolo[1,5-a]pyrazin-4-yl)cyclohexane-1-carbonitrile]
IC50 [1]: 0.1 to 100 nM
IC50 [2]: 100 to 1000 nM

N#CC1CC=C(c2c(-c3ccc4c(c3)NC(=O)C4)cnc3[nH]ccc23)CC1 (centres unmarked) [Compound P-0208, 4-(5-(2-oxoindolin-6-yl)-1H-pyrrolo[2,3-b]pyridin-4-yl)cyclohex-3-ene-1-carbonitrile]
IC50 [1]: 0.1 to 100 nM
IC50 [2]: 0.1 to 100 nM

COc1ccc(-c2cnn3ccnc(C4=CCC(C#N)CC4)c23)cc1F (centres unmarked) [Compound P-0104, 4-(3-(3-fluoro-4-methoxyphenyl)pyrazolo[1,5-a]pyrazin-4-yl)cyclohex-3-ene-1-carbonitrile]
IC50 [1]: 0.1 to 100 nM
IC50 [2]: 0.1 to 100 nM

CCCS(=O)(=O)Nc1ccc2cc(-c3cnn4ccnc(C5=CCC(C#N)CC5)c34)ccc2n1 (centres unmarked) [Compound P-0094, N-(6-(4-(4-cyanocyclohex-1-en-1-yl)pyrazolo[1,5-a]pyrazin-3-yl)quinolin-2-yl)propane-1-sulfonamide]
IC50 [1]: 0.1 to 100 nM
IC50 [2]: 0.1 to 100 nM

N#CC1CC=C(c2c(-c3ccc(-n4cccn4)cc3)cnc3[nH]ccc23)CC1 (centres unmarked) [Compound P-0203, 4-(5-(4-(1H-pyrazol-1-yl)phenyl)-1H-pyrrolo[2,3-b]pyridin-4-yl)cyclohex-3-ene-1-carbonitrile]
IC50 [1]: 0.1 to 100 nM
IC50 [2]: 0.1 to 100 nM

Cc1nc2cc(-c3cnn4ccnc(C5=CCC(C#N)CC5)c34)ccc2s1 (centres unmarked) [Compound P-0148, 4-(3-(2-methylbenzo[d]thiazol-5-yl)pyrazolo[1,5-a]pyrazin-4-yl)cyclohex-3-ene-1-carbonitrile]
IC50 [1]: 100 to 1000 nM
IC50 [2]: 0.1 to 100 nM

N#CC1CCC(c2cccn3ncc(-c4ccc(-n5ccnn5)cc4)c23)CC1 (mixture of isomers) [Compound P-0217, (1r,4r) and (1s,4s)-4-[3-[4-(triazol-1-yl)phenyl]pyrazolo[1,5-a]pyridin-4-yl]cyclohexanecarbonitrile]
IC50 [1]: 0.1 to 100 nM
IC50 [2]: 0.1 to 100 nM

N#CC1CC=C(c2nccn3ncc(-c4ccc5[nH]ncc5c4)c23)CC1 (centres unmarked) [Compound P-0070, 4-(3-(1H-indazol-5-yl)pyrazolo[1,5-a]pyrazin-4-yl)cyclohex-3-ene-1-carbonitrile]
IC50 [1]: 0.1 to 100 nM
IC50 [2]: 0.1 to 100 nM

N#CC1CC=C(c2nccn3ncc(-c4ccc(-c5cnn(CC(F)F)c5)cc4)c23)CC1 (centres unmarked) [Compound P-0029, 4-(3-(4-(1-(2,2-difluoroethyl)-1H-pyrazol-4-yl)phenyl)pyrazolo[1,5-a]pyrazin-4-yl)cyclohex-3-ene-1-carbonitrile]
IC50 [1]: 0.1 to 100 nM
IC50 [2]: 0.1 to 100 nM

N#CC1CC=C(c2nccn3ncc(-c4cnn(-c5ccc(F)cc5)c4)c23)CC1 (centres unmarked) [Compound P-0103, 4-(3-(1-(4-fluorophenyl)-1H-pyrazol-4-yl)pyrazolo[1,5-a]pyrazin-4-yl)cyclohex-3-ene-1-carbonitrile]
IC50 [1]: 0.1 to 100 nM
IC50 [2]: 100 to 1000 nM

N#CCCCn1cc(-c2ccc(-c3cnn4ccnc(C5=CCC(C#N)CC5)c34)cc2)cn1 (centres unmarked) [Compound P-0009, 4-(3-(4-(1-(3-cyanopropyl)-1H-pyrazol-4-yl)phenyl)pyrazolo[1,5-a]pyrazin-4-yl)cyclohex-3-ene-1-carbonitrile]
IC50 [1]: 0.1 to 100 nM
IC50 [2]: 0.1 to 100 nM
